Laboratory results taken from US10787413B2, “Derivatives of curcuminoids and use thereof as an anticancer agent” (CHINA MEDICAL UNIVERSITY, priority 2016, dated 2020).
Where two headings read alike, the source gives them in different places.

Legend:
[1] = system: MDA-MB-231 cells; assay: Cell cycle distribution analysis (PI, flow cytometry); format: cell-based, human; conditions: 5 μM, 24 h
Method: For cell cycle and sub-G1 (apoptosis) determinations, the harvested cells were fixed gently by putting 70% ethanol in 4° C. overnight and then re-suspended in PBS containing 40 μg/ml PI and 0.1 mg/ml RNase and 0.1% Triton X-100 in dark room for 30 min at 37° C. Those cells were analyzed with a flow cytometer equipped with an argon ion laser at 488 nm wavelength^22.

[2] = system: various breast cancer cell lines; assay: Cell viability, various breast cancer cell lines (21a compared with curcumin); format: cell-based; conditions: TNBC cells
Method: (§1) Cell viability was evaluated by measuring the reduction in MTT to yield blue formazan. Cells were cultured in 96-well plates, allowed to attach overnight, and then treated with compounds. After treatment, MTT solution (1 mg/ml) was added to each well, and plates were incubated for another 4 h. Medium were removed, blue formazan was dissolved in DMSO, and the absorbance was read at 570 nm^20.

[3] = Solubility in water or alcohol; format: physicochemical; conditions: compared with curcumin
[4] = system: MDA-MB-231 cells; assay: Cell morphology, phase-contrast microscope; format: cell-based, human; conditions: 10 μM, 24 h
Description: For morphological observations, cells were visualized and photographed using a phase-contrast microscope equipped with a digital camera (Leica Microsystems, Wetzlar, Germany)^21.

[5] = system: HS-578T; assay: Cell viability, HS-578T breast cancer cells; format: cell-based; conditions: Homo sapiens; HS-578T (Triple negative), treated for 24 h
Method: as §1

[6] = system: MDA-MB-453; assay: Cell viability, MDA-MB-453 breast cancer cells; format: cell-based; conditions: Homo sapiens; MDA-MB-453 (Her-2+), treated for 24 h
Method: as §1

[7] = system: MDA-MB-231 cells; assay: Immunofluorescence staining LC3B and p62; format: cell-based, human; conditions: 5 μM and 10 μM, 24 h
Method: Cells were grown on sterile coverslips placed in a 6-well plate. After treatments, cells were fixed with 4% (w/v) paraformaldehyde and permeabilized with 0.2% (v/v) Triton X-100 in PBS. After blocking with 2% (w/v) bovine serum albumin in PBS, […] was detected using anti-LC3B and anti-p62 antibody followed by reaction with FITC or PE-conjugated secondary antibody (BD Biosciences). Coverslips were mounted on glass slides with Prolong Gold Antifade Reagent containing DAPI (Invitrogen), and fluorescence images were taken on a Leica Microsystems TCS SP2 Confocal Spectral microscope^26.

[8] = system: BT-474; assay: Cell viability, BT-474 breast cancer cells; format: cell-based; conditions: Homo sapiens; BT-474 (Her-2+), treated for 24 h
Method: as §1

[9] = system: MDA-MB-231 cells; assay: Western blot analysis of treated cells; format: cell-based, human
Method: After treatments, cells were harvested, washed, and suspended in PBS containing proteinase inhibitors and then disrupted with sonication. Protein concentrations were estimated using the Protein Assay kit from Bio-Rad (Hercules, Calif., USA). Samples were resolved with SDS-PAGE and transferred to a polyvinylidene difluoride membrane (EMD Millipore). Each membrane was blocked in 5% (w/v) non-fat milk in Tris-buffered saline with 0.1% (v/v) Tween-20 for 1 h followed by incubation with specific primary antibodies at 4° C. overnight. Each membrane was then incubated with horseradish peroxidase-conjugated secondary antibodies at room temperature for 1 h. Protein signals were detected with the Immobilon Western Chemiluminescent HRP Substrate (EMD Millipore) and visualized using the LAS-4000 imaging system (Fuji, Tokyo, Japan)^25.

[10] = system: MDA-MB-157; assay: Cell viability, MDA-MB-157 breast cancer cells; format: cell-based; conditions: Homo sapiens; MDA-MB-157 (Triple negative), treated for 24 h
Method: as §1

[11] = system: MDA-MB-468; assay: Cell viability, MDA-MB-468 breast cancer cells; format: cell-based; conditions: Homo sapiens; MDA-MB-468 (Triple negative), treated for 24 h
Method: as §1

[12] = system: PC3 prostate cancer cell; assay: MTT cell viability assay, PC3 prostate cancer cell; format: cell-based
Method: as §1

[13] = system: Doxorubicin-resistant MDA-MB-231; assay: Cell viability, Doxorubicin-resistant MDA-MB-231; format: cell-based; conditions: for IC50: Doxorubicin-resistant MDA-MB-231, treated for 24 h
Method: as §1

[14] = Stability of 21a in the culture media; format: physicochemical; conditions: media after 72 h treatment analyzed for curcumin
Method: Besides, the stability of 21a in the culture media was tested.

[15] = system: MDA-MB-231 cells; assay: Apoptosis analysis (annexin V/propidium iodide); format: cell-based, human; conditions: 5 μM, 24 and 48 h
Description: After treatments, cells were harvested and stained with annexin V and propidium iodide using the Annexin V: FITC Apoptosis Detection Kit II (BD Biosciences) and subjected to flow cytometry (FACScalibur; Becton-Dickinson, Mountain View, Calif., USA). The percentages of apoptotic cells were quantified with CellQuest software (Becton-Dickinson)^24.

[16] = system: HCT-116 colon cancer cell; assay: MTT cell viability assay, HCT-116 colon cancer cell; format: cell-based; conditions: Homo sapiens
Method: as §1

[17] = system: T47D; assay: Cell viability, T47D breast cancer cells; format: cell-based; conditions: Homo sapiens; T47D (ER+/PR+), treated for 24 h
Method: as §1

[18] = system: MDA-MB-231 Xenograft
Method: Female nu/nu mice (5 weeks old) were from National Laboratory Animal Center, Taipei, Taiwan. […] MDA-MB-231 breast cancer cells (5×10^6 cells per mouse) were suspended in 0.1 ml of Matrigel solution (50% (v/v) Matrigel in PBS) and inoculated into the mammary fat pads of the mice. […] Compounds was administered P.O. once every day for 32 days. Tumor size and mouse body weight were measured once every 4 days, and tumor volume (mm3) was calculated using the equation: length×(width)^2×0.5. At the end of experiments, mice were sacrificed and tumor nodules were dissected and weighed.

Q: For COc1cc(/C=C/C(=O)/C=C(O)/C=C/c2ccc(OC(=O)C(C)(CO)CO)c(OC)c2)ccc1OC(=O)C(C)(CO)CO [Compound 21a, ((1E,3Z,6E)-3-Hydroxy-5-oxohepta-1,3,6-triene-1,7-diyl)bis(2-methoxy-4,1-phenylene) bis(3-hydroxy-2-(hydroxymethyl)-2-methylpropenoate)], which G2/M cell population [1] is on record?
A: Its G2/M cell population is “significantly increased”.

Q: What about the “times greater inhibitory activity than curcumin” value [2] of the same compound?
A: Its value is 3.4-7.4 times.

Q: And the “solubility in either water or alcohol” value [3]?
A: The value was “better than that of curcumin”.

Q: And the cell morphology [4]?
A: The cell morphology was “caused breast cancer cell apoptosis and autophagy”.

Q: And the IC50 [5]?
A: The IC50 was 7.96 ± 0.27 µM.

Q: What about the IC50 [6] of the same compound?
A: The IC50 was 3.97 ± 0.27 µM.

Q: And the “LC3B-positive and p62-positive cells” value [7]?
A: Its value is “significantly increased”.

Q: And the IC50 [8]?
A: The IC50 was 6.15 ± 0.87 µM.

Q: What about the “levels of Cyclin B and CDK 1” value ([9]; 5 μM, 0-24 h) of the same compound?
A: The value was “down-regulated”.

Q: And the “levels of Bcl-2, Bcl-x” value ([9]; 10 μM, 0-24 h)?
A: Its value is “downregulated”.

Q: What about the “levels of CHOP, Bip” value ([9]; 10 μM, 0-24 h) of the same compound?
A: The value was “up-regulated”.

Q: What about the “levels of DR5, FADD, Bax” value ([9]; 10 μM, 0-24 h) of the same compound?
A: Its value is “up-regulated”.

Q: What about the “levels of Ero1, PD1, PERK1, Calnexin, IRE1α” value ([9]; 10 μM, 0-24 h) of the same compound?
A: The value was “downregulated”.

Q: What about the “levels of Atg5, Atg7, Atg12, Beclin, p62 and LC3B” value ([9]; 10 μM, 4-24 h, time-dependent) of the same compound?
A: The value was “induced”.

Q: What about the IC50 [10] of the same compound?
A: Its IC50 is 9.23 ± 0.11 µM.

Q: What about the IC50 [11] of the same compound?
A: The IC50 was 6.13 ± 0.51 µM.

Q: And the IC50 ([12]; PC-3, treated 24 hours, read-out: IC50 24 hours)?
A: Its IC50 is 7.8 ± 0.03 µM.

Q: What about the IC50 ([12]; PC-3, treated 48 hours, read-out: IC50 48 hours) of the same compound?
A: Its IC50 is 6 ± 0.35 µM.

Q: And the IC50 ([12]; PC-3, treated 72 hours, read-out: IC50 72 hours)?
A: Its IC50 is 3.9 ± 0.08 µM.

Q: And the “times greater inhibitory activity than curcumin” value ([13]; Doxorubicin-resistant MDA-MB-231)?
A: Its value is 10 times.

Q: What about the IC50 [13] of the same compound?
A: Its IC50 is 6.52 ± 1.7 µM.

Q: What about the IC50 ([13]; Homo sapiens, MDA-MB-231, 24 h) of the same compound?
A: The IC50 was 6.5 µM.

Q: And the “stability in the culture media” value [14]?
A: The value was “stable”.

Q: What about the “population of annexin V-positive cells” value [15] of the same compound?
A: The value was “significantly increased”.

Q: What about the IC50 ([16]; HCT-116, treated 24 hours, read-out: IC50 24 hours) of the same compound?
A: Its IC50 is 10.5 ± 1.03 µM.

Q: What about the IC50 ([16]; HCT-116, treated 48 hours, read-out: IC50 48 hours) of the same compound?
A: The IC50 was 6.25 ± 0.596 µM.

Q: And the IC50 ([16]; HCT-116, treated 72 hours, read-out: IC50 72 hours)?
A: The IC50 was 3.91 ± 0.27 µM.

Q: What about the IC50 [17] of the same compound?
A: The IC50 was 19.3 ± 1.71 µM.

Q: What about the “tumor weight smaller than that of the control group” value ([18]; 21a PO combined with Doxorubicin IP 1 mg/kg/day) of the same compound?
A: Its value is 80%.

Q: And the “reduction of MDA-MB-231 tumor weight compared with control group” value ([18]; 21a alone, PO (50 mg/kg/day))?
A: Its value is 60%.

Q: What about the “effect of combined use on antitumor activity of Doxorubicin” value ([18]; 21a with Doxorubicin) of the same compound?
A: Its value is “enhance the antitumor activity of Doxorubicin”.
